PMC7951571 (Heliyon, 2021)
Where two headings read alike, the source gives them in different places. Residues, ends and D or L forms follow the SMILES beside them. *: point of attachment. Cbz = O=C(OCc1ccccc1)*; CH2F = FC*

Assays:
[1] = target: rhACE2 - SARS-CoV-2 Spike (RBD) protein interaction (Homo sapiens, UniProt Q9BYF1); test: biochemical; assay type: binding, human; SARS-CoV-2
[2] = target: recombinant human ACE2 (rhACE2) (Homo sapiens, UniProt Q9BYF1); test: ACE2 inhibitor screening assay; assay type: biochemical
in vitro = conditions: African green monkey
Vero E6 cells = conditions: for Concentration at Maximum % Viability: monkey
SARS-CoV-2 USA_WA1/2020 = assay type: cell-based
[3] = tested on: ACE2-Spike interaction (SARS-CoV, SARS-CoV2, NL63S); conditions: cited from earlier work
[4] = Spike (RBD)-ACE2 Interaction Assay IC50_1
[5] = Spike (RBD)-ACE2 Interaction Assay IC50_2

Sequence of rhACE2 - SARS-CoV-2 Spike (RBD) protein interaction (Q9BYF1 18-740): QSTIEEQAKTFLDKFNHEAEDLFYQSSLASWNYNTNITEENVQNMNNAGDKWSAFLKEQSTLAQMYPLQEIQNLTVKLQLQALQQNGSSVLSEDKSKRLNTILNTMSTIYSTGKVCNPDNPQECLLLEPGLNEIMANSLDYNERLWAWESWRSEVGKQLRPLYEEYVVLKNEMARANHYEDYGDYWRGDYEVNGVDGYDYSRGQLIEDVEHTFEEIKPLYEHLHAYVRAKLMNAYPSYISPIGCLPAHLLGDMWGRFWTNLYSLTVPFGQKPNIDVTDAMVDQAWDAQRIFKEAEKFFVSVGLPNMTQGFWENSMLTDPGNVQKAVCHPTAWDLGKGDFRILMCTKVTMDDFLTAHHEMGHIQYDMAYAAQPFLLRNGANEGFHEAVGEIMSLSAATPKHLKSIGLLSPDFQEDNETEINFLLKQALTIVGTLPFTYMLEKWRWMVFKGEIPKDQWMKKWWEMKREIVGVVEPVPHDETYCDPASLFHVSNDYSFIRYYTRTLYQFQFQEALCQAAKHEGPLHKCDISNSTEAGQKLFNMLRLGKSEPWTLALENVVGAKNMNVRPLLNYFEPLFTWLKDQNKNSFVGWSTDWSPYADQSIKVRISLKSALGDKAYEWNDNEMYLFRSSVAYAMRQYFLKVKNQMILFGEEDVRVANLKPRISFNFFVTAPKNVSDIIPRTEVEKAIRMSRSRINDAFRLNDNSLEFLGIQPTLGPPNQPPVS
Sequence of recombinant human ACE2 (rhACE2) (Q9BYF1 18-805): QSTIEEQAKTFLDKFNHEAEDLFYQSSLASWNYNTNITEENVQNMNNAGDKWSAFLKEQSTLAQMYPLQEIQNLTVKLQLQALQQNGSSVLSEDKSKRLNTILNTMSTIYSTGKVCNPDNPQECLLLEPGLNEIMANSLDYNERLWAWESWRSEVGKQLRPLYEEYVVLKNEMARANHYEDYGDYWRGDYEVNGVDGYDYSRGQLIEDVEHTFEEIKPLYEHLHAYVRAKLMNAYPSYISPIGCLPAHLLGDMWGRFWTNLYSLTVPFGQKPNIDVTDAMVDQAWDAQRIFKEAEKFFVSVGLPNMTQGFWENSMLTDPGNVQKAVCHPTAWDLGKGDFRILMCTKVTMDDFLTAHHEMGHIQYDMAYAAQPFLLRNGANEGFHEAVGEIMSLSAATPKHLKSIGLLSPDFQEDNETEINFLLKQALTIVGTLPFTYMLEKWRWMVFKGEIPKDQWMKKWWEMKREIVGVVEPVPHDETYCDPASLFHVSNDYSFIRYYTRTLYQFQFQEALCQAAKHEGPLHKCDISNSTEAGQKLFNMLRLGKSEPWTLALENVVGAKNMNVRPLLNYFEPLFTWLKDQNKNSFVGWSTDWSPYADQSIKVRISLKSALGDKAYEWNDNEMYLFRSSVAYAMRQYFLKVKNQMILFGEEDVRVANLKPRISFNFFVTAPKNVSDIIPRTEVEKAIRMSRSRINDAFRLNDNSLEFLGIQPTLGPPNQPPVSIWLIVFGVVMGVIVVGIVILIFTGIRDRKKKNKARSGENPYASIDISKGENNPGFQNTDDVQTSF

Compound | IC50 [1, 4] [µM] | CC50 (in vitro) [µM] | viability (in vitro; Maximum Viability (%)) [%] | viability (in vitro; Minimum Viability (%)) [%] | Concentration at Minimum % Viability (Vero E6 cells; African green monkey) [µM] | Concentration at Maximum % Viability (Vero E6 cells) [µM] | Maximum Inhibition (%) (SARS-CoV-2 USA_WA1/2020) | other results
Oc1c(Br)cc(Cl)c2cccnc12 [CLBQ14, 7-bromo-5-chloro-8-hydroxyquinoline] | 2.76 | > 30 | 108 | 53.5 | 15.00 | 0.12 |  | IC50 [1, 5]: 3.06 µM; IC50 [2]: 5.55 µM
Oc1c(Cl)cc(Cl)c2cccnc12 [CLCQ, 5,7-dichloro-8-hydroxyquinoline] | 1.74 | > 30 | 102 | 60.8 | 15.00 | 0.06 |  | IC50 [1, 5]: 1.91 µM; IC50 [2]: < 10 µM
Oc1c(I)cc(Cl)c2cccnc12 [CLQ, 5-chloro-7-iodo-8-quinolinol] | 0.85 | > 30 | 106 | 61.8 | 30.00 | 0.23 |  | 
CC(C)C[C@H](NC(=O)OCc1ccccc1)C(=O)N[C@@H](CC(C)C)C(=O)N[C@@H](Cc1ccc(O)cc1)C(=O)CF [Calpain Inhibitor IV] (Cbz-Leu-Leu-Tyr-CH2F) |  |  |  |  |  | 0.22 | 95.75 | IC50 (SARS-CoV-2 USA_WA1/2020; read-out: IC50, SARS-CoV-2 induced CPE): 0.41 µM; CC50 (Vero E6 cells): > 7.17 µM; Concentration at Minimum % Viability (Vero E6 cells): 3.59 µM; Maximum Viability (%) (Vero E6 cells): 104.99%; Minimum Viability (%) (Vero E6 cells): 98.29%
CCN(CC)CCCC(C)Nc1ccnc2cc(Cl)ccc12 (stereo not shown) [Chloroquine] |  | > 30 | 107 | 95.6 | 15.00 | 0.06 | 111.08 | 
CCOC(=O)[C@H]1O[C@@H]1C(=O)N[C@@H](CC(C)C)C(=O)NCCC(C)C [E64d (Aloxistatin), Aloxistatin] |  | > 30 | 113 | 100 | 15.00 | 0.12 | 98.55 | 
CCN(CCO)CCCC(C)Nc1ccnc2cc(Cl)ccc12 (stereo not shown) [Hydroxychloroquine] |  | > 30 | 104 | 96.9 | 3.75 | 0.06 | 93.14 | 
CC(C)C[C@H](N[C@@H](Cc1cncn1Cc1cc(Cl)cc(Cl)c1)C(=O)O)C(=O)O [MLN-4760, (S,S)-2-{1-Carboxy-2-[3-(3,5-dichloro-benzyl)-3H-imidazol-4-yl]-ethylamino}-4-methyl-pentanoic acid] |  |  |  |  |  |  |  | disruption of ACE2-Spike interaction [3]: does not disrupt ACE2-Spike interaction
CCC(CC)COC(=O)[C@H](C)N[P@](=O)(OC[C@H]1O[C@@](C#N)(c2ccc3c(N)ncnn23)[C@H](O)[C@@H]1O)Oc1ccccc1 [Remdesivir] |  | > 30 | 104 | 97.5 | 3.75 | 0.06 | 100.27 | 
[Cl-].[Cl-].[Zn+2] [ZnCl2, Zinc Chloride] |  |  |  |  |  |  |  | exopeptidase activity of rhACE2 in the presence of ZnCl2 alone ([2]; 100μM to 100nM): increasing exopeptidase activity
